Data published in patent US5235843A, “Method and apparatus for analyzing volatile chemical components in a liquid” (The Dow Chemical Company, priority 1991, dated 1993).

experiment: Enrichment (partitioning from water to air in segmented flow), enrichment factor; type: physicochemical; conditions: calculated enrichment factor
Source text: That is, each enrichment factor is a direct measure of the detection capabilities of the method and apparatus with respect to a specific volatile compound compound.
Both the detection limit in air and quantitation limit in water will vary depending on the sensitivity of the analytical equipment used. Thus, at any given testing site the sensitivity of the particular gas chromatograph used will determine detection and quantitation limits.
Without benefit of known enrichment factor for each compound compound present, extrapolation of the quantitation limit (LOQ) for each compound was accomplished by multiplying the signal-to-noise ratio of the test instrument by ten. These quantitation limits are a reflection of both the detector sensitivity (LOD) and what can be referred to as the enrichment factor or magnification of the concentration into the air phase. Thus, an enrichment factor was calculated for each compound as follows: [formula]
The enrichment factor depends on the volatility, water solubility, and diffusion coefficient of the particular compound.

Q: Which “EF (air/water)” value does the source give for `ClC(Cl)C(Cl)Cl` [1,1,2,2-TETRACHLOROETHANE] here?
A: 2.0

Q: Which “EF (air/water)” value does the source give for `ClCC(Cl)Cl` [1,1,2-TRICHLOROETHANE] here?
A: 3.9

Q: For `CC(Cl)(Cl)Cl` [1,1,-TRICHLOROETHANE], which “EF (air/water)” value is on record?
A: 6.8

Q: Which “EF (air/water)” value does the source give for `CC(Cl)Cl` [1,1-DICHLOROETHANE] here?
A: 6.7

Q: Which “EF (air/water)” value does the source give for `Clc1ccccc1Cl` [1,2-DICHLOROBENZENE] here?
A: 1.7

Q: For `ClCCCl` [1,2-DICHLOROETHANE], which “EF (air/water)” value is on record?
A: 6.8

Q: For `CC(Cl)CCl` (stereo not drawn) [1,2-DICHLOROPROPANE], which “EF (air/water)” value is on record?
A: 7.7

Q: For `ClC(Cl)Br` [BROMODICHLOROMETHANE], which “EF (air/water)” value is on record?
A: 7.7

Q: With `BrC(Br)Br` [BROMOFORM] as the molecule, how does the “EF (air/water)” value read?
A: 2.0

Q: For `ClC(Cl)(Cl)Cl` [CARBON TETRACHLORIDE], which “EF (air/water)” value is on record?
A: 7.7

Q: Which “EF (air/water)” value does the source give for `Clc1ccccc1` [CHLOROBENZENE] here?
A: 4.0

Q: For `ClC(Br)Br` [CHLORODIBROMOMETHANE], which “EF (air/water)” value is on record?
A: 3.7

Q: For `ClC(Cl)Cl` [CHLOROFORM], which “EF (air/water)” value is on record?
A: 6.6

Q: With `CBr` [METHYL BROMIDE] as the molecule, how does the “EF (air/water)” value read?
A: 76

Q: Which “EF (air/water)” value does the source give for `ClCCl` [METHYLENE CHLORIDE] here?
A: 8.2

Q: With `ClC(Cl)=C(Cl)Cl` [PERCHLOROETHYLENE] as the molecule, how does the “EF (air/water)” value read?
A: 4.8

Q: With `ClC=C(Cl)Cl` [TRICHLOROETHYLENE] as the molecule, how does the “EF (air/water)” value read?
A: 9.9

Q: With `C=C(Cl)Cl` [[…]] as the molecule, how does the “EF (air/water)” value read?
A: 12

Q: For `Cl/C=C\CCl` [c-1,3 DICHLOROPROPENE], which “EF (air/water)” value is on record?
A: 3.6

Q: For `Cl/C=C/Cl` [t-1,2-DICHLOROETHYLENE], which “EF (air/water)” value is on record?
A: 16

Q: For `Cl/C=C/CCl` [t-1,3-DICHLOROPROPENE], which “EF (air/water)” value is on record?
A: 7.2
